Source: article PMC10746543, “Design principles for cyclin K molecular glue degraders” (Nature Chemical Biology, 2023)
“And” between values parts separate entries of the source, which are not always exact repeats. Equal values may be shown once. Read-outs that look alike come from different tables or passages of the source.

Tests used:
[1] = system: cyclin K–eGFP degradation reporter; assay: Cyclin K reporter stability analysis (dual-color cyclin K–eGFP reporter); type: cell-based, human; conditions: for reporter assay signal (normalized): replicates; for Normalized GFP/mCheery: flow source data
Summary of the method: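 HEK293T–Cas9 cells carrying the cyclin K–eGFP reporter were seeded at 1 × 10^6 ml^−1 and exposed to drug or DMSO for 5 h. Flow cytometry gave geometric means of eGFP and mCherry in round, mCherry-positive cells. The eGFP/mCherry ratio was normalized to the mean of three DMSO controls.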

[2] = target: T1, CDK9–cyclin T (Homo sapiens, UniProt P50750); assay: Lanthascreen kinase binding assay, CDK9
T1 construct: purchased Thermo Fisher
Protocol: (§1) Lanthascreen experiments were performed using commercially available reagents (Thermo Fisher) and according to the manufacturer’s instructions.

[3] = target: T2, CDK2–cyclin A (Homo sapiens, UniProt P24941); assay: Lanthascreen kinase binding assay, CDK2; conditions: for Lanthascreen signal, sheet CDK2: raw replicates
T2 construct: purchased Thermo Fisher
Protocol: as §1

[4] = system: cyclin K; assay: Label-free quantitative mass spectrometry in MDA-MB-231 cells, cyclin K; type: cell-based, human
Summary of the method: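 MDA-MB-231 cells treated 5 h with 1 µM cyclin K degrader or DMSO. Lysates digested with LysC and trypsin, then analysed by label-free diaPASEF LC-MS on a TimsTOF Pro2 with directDIA search and MS1 precursor quantification. Protein abundances scaled and analysed with limma.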

T1 sequence (P50750 whole entry): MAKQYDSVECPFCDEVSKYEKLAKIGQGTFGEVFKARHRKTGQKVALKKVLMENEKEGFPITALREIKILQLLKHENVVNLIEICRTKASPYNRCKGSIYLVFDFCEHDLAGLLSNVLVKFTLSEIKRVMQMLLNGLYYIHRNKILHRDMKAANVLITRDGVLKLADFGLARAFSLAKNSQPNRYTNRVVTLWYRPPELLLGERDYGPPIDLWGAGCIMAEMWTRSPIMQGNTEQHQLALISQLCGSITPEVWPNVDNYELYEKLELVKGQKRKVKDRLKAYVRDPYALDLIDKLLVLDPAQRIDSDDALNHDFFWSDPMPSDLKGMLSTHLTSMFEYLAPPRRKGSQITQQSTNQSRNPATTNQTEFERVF
T1 sequence (O60563 whole entry partner): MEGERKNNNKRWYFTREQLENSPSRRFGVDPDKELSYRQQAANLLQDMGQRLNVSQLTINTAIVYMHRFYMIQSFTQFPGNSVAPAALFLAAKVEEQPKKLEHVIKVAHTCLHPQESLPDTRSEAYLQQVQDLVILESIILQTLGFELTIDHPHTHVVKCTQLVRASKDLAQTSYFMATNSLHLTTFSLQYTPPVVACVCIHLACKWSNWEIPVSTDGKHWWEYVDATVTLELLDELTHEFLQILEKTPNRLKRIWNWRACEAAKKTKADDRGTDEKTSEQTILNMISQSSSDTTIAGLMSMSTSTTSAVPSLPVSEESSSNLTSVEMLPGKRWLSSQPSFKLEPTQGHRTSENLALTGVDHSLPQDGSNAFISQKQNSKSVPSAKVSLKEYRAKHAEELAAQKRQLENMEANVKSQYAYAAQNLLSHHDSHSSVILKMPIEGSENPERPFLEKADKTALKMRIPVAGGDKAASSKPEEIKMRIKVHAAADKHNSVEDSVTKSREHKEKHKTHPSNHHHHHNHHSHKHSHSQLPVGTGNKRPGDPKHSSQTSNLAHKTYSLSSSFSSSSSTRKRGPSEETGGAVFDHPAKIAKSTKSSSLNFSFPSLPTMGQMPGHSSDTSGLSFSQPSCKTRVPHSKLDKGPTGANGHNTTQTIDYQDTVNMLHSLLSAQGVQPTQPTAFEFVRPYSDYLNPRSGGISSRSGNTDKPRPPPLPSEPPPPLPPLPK

C[C@H](C(=O)Nc1nc2ccccc2[nH]1)N1Cc2ccccc2C1=O [compound 919278]
reporter assay signal (normalized) ([1]; 5 nM): 0.9951 and 0.9832 | reporter assay signal (normalized) ([1]; 10.7 nM): 0.9896 and 0.9546 | Normalized GFP/mCheery ([1]; 22.9 nM, HEK293T): 0.8457 | reporter assay signal (normalized) ([1]; 22.9 nM): 0.9344 and 0.9583 | Normalized GFP/mCheery ([1]; 48.9 nM, HEK293T): 0.8139 | reporter assay signal (normalized) ([1]; 48.9 nM): 0.9381 and 0.9234 | Normalized GFP/mCheery ([1]; 105 nM, HEK293T): 0.8144 | reporter assay signal (normalized) ([1]; 105 nM): 0.9087 and 0.8866 | reporter assay signal (normalized) ([1]; 224 nM): 0.8755 and 0.8691 | Normalized GFP/mCheery ([1]; 478 nM, HEK293T): 0.7219 | reporter assay signal (normalized) ([1]; 478 nM): 0.8011 and 0.8332 | reporter assay signal (normalized) ([1]; 2190 nM): 0.7799 and 0.7725 | reporter assay signal (normalized) ([1]; 4680 nM): 0.7431 and 0.7578 | Normalized GFP/mCheery ([1]; 10000 nM, HEK293T): 0.6269 | reporter assay signal (normalized) ([1]; 10000 nM): 0.7256 and 0.8167 | cyclin K reporter degradation, result in words ([1]; HEK293T): weaker | DC50 ([1]; source data sheet correlations, read-out: DC50): 176 nM | IC50 ([2]; Lanthascreen, average, Extended Data Fig. 8, read-out: CDK9 IC50): 120 nM | Lanthascreen TR-FRET signal (raw ratio), sheet CDK9 ([2]; compound 0.038147 nM, fourth titration set (r37), triplicates): 0.0408 and 0.04808 and 0.04479 | Lanthascreen TR-FRET signal (raw ratio), sheet CDK9 ([2]; compound 0.038147 nM, second titration set (r13), duplicates): 0.01436 and 0.01414 | Lanthascreen TR-FRET signal (raw ratio), sheet CDK9 ([2]; compound 0.152588 nM, fourth titration set (r37), triplicates): 0.0398 and 0.0481 and 0.0499 | Lanthascreen TR-FRET signal (raw ratio), sheet CDK9 ([2]; compound 0.152588 nM, second titration set (r13), duplicates): 0.01385 and 0.01395 | Lanthascreen TR-FRET signal (raw ratio), sheet CDK9 ([2]; compound 0.610352 nM, fourth titration set (r37), triplicates): 0.03905 and 0.04639 and 0.04821 | Lanthascreen TR-FRET signal (raw ratio), sheet CDK9 ([2]; compound 0.610352 nM, second titration set (r13), duplicates): 0.01357 and 0.01395 | Lanthascreen TR-FRET signal (raw ratio), sheet CDK9 ([2]; compound 9.76563 nM, fourth titration set (r37), triplicates): 0.03561 and 0.04225 and 0.04097 | Lanthascreen TR-FRET signal (raw ratio), sheet CDK9 ([2]; compound 9.76563 nM, second titration set (r13), duplicates): 0.01332 and 0.01366 | Lanthascreen TR-FRET signal (raw ratio), sheet CDK9 ([2]; compound 39.0625 nM, fourth titration set (r37), triplicates): 0.02645 and 0.03287 and 0.03192 | Lanthascreen TR-FRET signal (raw ratio), sheet CDK9 ([2]; compound 39.0625 nM, second titration set (r13), duplicates): 0.01225 and 0.01118 | Lanthascreen TR-FRET signal (raw ratio), sheet CDK9 ([2]; compound 156.25 nM, fourth titration set (r37), triplicates): 0.01751 and 0.01989 and 0.01852 | Lanthascreen TR-FRET signal (raw ratio), sheet CDK9 ([2]; compound 156.25 nM, second titration set (r13), duplicates): 0.008604 and 0.00887 | Lanthascreen TR-FRET signal (raw ratio), sheet CDK9 ([2]; compound 625 nM, fourth titration set (r37), triplicates): 0.008779 and 0.01074 and 0.01058 | Lanthascreen TR-FRET signal (raw ratio), sheet CDK9 ([2]; compound 625 nM, second titration set (r13), duplicates): 0.005642 and 0.005316 | Lanthascreen TR-FRET signal (raw ratio), sheet CDK9 ([2]; compound 2500 nM, fourth titration set (r37), triplicates): 0.006189 and 0.006358 and 0.00654 | Lanthascreen TR-FRET signal (raw ratio), sheet CDK9 ([2]; compound 2500 nM, second titration set (r13), duplicates): 0.00388 and 0.003855 | Lanthascreen TR-FRET signal (raw ratio), sheet CDK9 ([2]; compound 10000 nM, fourth titration set (r37), triplicates): 0.00467 and 0.004911 and 0.00523 | Lanthascreen TR-FRET signal (raw ratio), sheet CDK9 ([2]; compound 10000 nM, second titration set (r13), duplicates): 0.003154 and 0.003151 | Lanthascreen signal, sheet CDK2 ([3]; Compound 0.038147 nM, experiment r13-r23): 0.01269 and 0.01352 | Lanthascreen signal, sheet CDK2 ([3]; Compound 0.038147 nM, experiment r48-r58): 0.008606 and 0.009047 | Lanthascreen signal, sheet CDK2 ([3]; Compound 0.038147 nM, experiment r60-r70): 0.02095 and 0.02064 and 0.01986 | Lanthascreen signal, sheet CDK2 ([3]; Compound 0.152588 nM, experiment r13-r23): 0.01305 and 0.01362 | Lanthascreen signal, sheet CDK2 ([3]; Compound 0.152588 nM, experiment r48-r58): 0.00965 and 0.01047 | Lanthascreen signal, sheet CDK2 ([3]; Compound 0.152588 nM, experiment r60-r70): 0.02036 and 0.02142 and 0.02063 | Lanthascreen signal, sheet CDK2 ([3]; Compound 0.610352 nM, experiment r13-r23): 0.01272 and 0.01276 | Lanthascreen signal, sheet CDK2 ([3]; Compound 0.610352 nM, experiment r48-r58): 0.009379 and 0.009611 | Lanthascreen signal, sheet CDK2 ([3]; Compound 0.610352 nM, experiment r60-r70): 0.02437 and 0.01852 and 0.0217 | Lanthascreen signal, sheet CDK2 ([3]; Compound 9.76563 nM, experiment r13-r23): 0.0128 and 0.01342 | Lanthascreen signal, sheet CDK2 ([3]; Compound 9.76563 nM, experiment r48-r58): 0.0095 and 0.01028 | Lanthascreen signal, sheet CDK2 ([3]; Compound 9.76563 nM, experiment r60-r70): 0.02195 and 0.02182 and 0.02183 | Lanthascreen signal, sheet CDK2 ([3]; Compound 39.0625 nM, experiment r13-r23): 0.01226 and 0.01223 | Lanthascreen signal, sheet CDK2 ([3]; Compound 39.0625 nM, experiment r48-r58): 0.009849 and 0.009843 | Lanthascreen signal, sheet CDK2 ([3]; Compound 39.0625 nM, experiment r60-r70): 0.02238 and 0.0202 and 0.02147 | Lanthascreen signal, sheet CDK2 ([3]; Compound 156.25 nM, experiment r13-r23): 0.01136 and 0.01335 | Lanthascreen signal, sheet CDK2 ([3]; Compound 156.25 nM, experiment r48-r58): 0.009932 and 0.01021 | Lanthascreen signal, sheet CDK2 ([3]; Compound 156.25 nM, experiment r60-r70): 0.02199 and 0.02222 and 0.02099 | Lanthascreen signal, sheet CDK2 ([3]; Compound 625 nM, experiment r13-r23): 0.01232 and 0.01317 | Lanthascreen signal, sheet CDK2 ([3]; Compound 625 nM, experiment r48-r58): 0.009318 and 0.009813 | Lanthascreen signal, sheet CDK2 ([3]; Compound 625 nM, experiment r60-r70): 0.02407 and 0.01928 and 0.02248 | Lanthascreen signal, sheet CDK2 ([3]; Compound 2500 nM, experiment r13-r23): 0.0114 and 0.013 | Lanthascreen signal, sheet CDK2 ([3]; Compound 2500 nM, experiment r48-r58): 0.009215 and 0.009737 | Lanthascreen signal, sheet CDK2 ([3]; Compound 2500 nM, experiment r60-r70): 0.02278 and 0.02094 and 0.0202 | Lanthascreen signal, sheet CDK2 ([3]; Compound 10000 nM, experiment r13-r23): 0.01075 and 0.01117 | Lanthascreen signal, sheet CDK2 ([3]; Compound 10000 nM, experiment r48-r58): 0.008396 and 0.009419 | Lanthascreen signal, sheet CDK2 ([3]; Compound 10000 nM, experiment r60-r70): 0.02054 and 0.0167 and 0.01885 | IC50 ([3]; Lanthascreen, average, Extended Data Fig. 8, read-out: CDK2 IC50): > 10000 nM | IC50 ([3]; Supplementary Table 2, read-out: Lanthascreen IC50 [nM] CDK2): > 10000 nM | cyclin K abundance (label-free MS) ([4]; individual replicates, sheet EDF7): 525.324 and 551.956 | cyclin K abundance (label-free MS) ([4]; label-free quantitative MS, replicate values): 525.324 and 551.956 | CCNK peptide count (DMSO-normalised) ([4]; normalised to DMSO = 1, replicate values): 0.287 and 0.307 | average CCNK peptide count ([4]; sheet EDF7): 538.64
